{"source": "patent US20250051359A1", "about": "“MACROCYCLIC 2-AMINO-BUT-3-ENAMIDES AS INHIBITORS OF MCL-1” (JANSSEN PHARMACEUTICA NV, priority 2021, published 2025)", "key": {"[1]": {"molecular_target": "Myeloid Cell Leukemia 1 (Mcl-1) (Homo sapiens, UniProt Q07820)", "sequence (Q07820 whole entry)": "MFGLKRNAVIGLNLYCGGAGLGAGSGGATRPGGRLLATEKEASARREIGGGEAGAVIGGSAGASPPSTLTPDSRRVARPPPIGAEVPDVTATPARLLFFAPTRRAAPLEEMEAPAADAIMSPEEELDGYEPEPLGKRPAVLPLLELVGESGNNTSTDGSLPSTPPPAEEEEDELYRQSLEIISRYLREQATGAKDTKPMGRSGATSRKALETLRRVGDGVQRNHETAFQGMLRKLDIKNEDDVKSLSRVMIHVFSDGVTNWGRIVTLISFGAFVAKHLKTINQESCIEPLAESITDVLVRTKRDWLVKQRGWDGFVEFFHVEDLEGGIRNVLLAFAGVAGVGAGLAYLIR", "assay": "Terbium labeled Mcl-1 HTRF binding assay, displacement of Cy5-labeled BIM BH3 peptide", "conditions": "25 pM Tb-Mcl-1, 8 nM Cy5 Bim peptide, 60 min at room temperature, read-out: Tb-MCL1 Ki", "experimental": "Terbium labeled Myeloid Cell Leukemia 1(Mcl-1) homogeneous time-resolved fluorescence (HTRF) binding assay utilizing the BIM BH3 peptide (H2N—(C/Cy5Mal) WIAQELRRIGDEFN-OH) as the binding partner for Mcl-1.\nThis assay evaluated inhibition of the BH3 domain: Mcl-1 interaction by measuring the displacement of Cy5-labeled BIM BH3 peptide (H2N—(C/Cy5Mal) WIAQELRRIGDEFN-OH) in the HTRF assay format.\nThe following assay and stock buffers were prepared for use in the assay: (a) Stock buffer: 10 mM Tris-HCl, pH=7.5+150 mM NaCl, filtered, sterilized, and stored at 4° C.; and (b) 1× assay buffer, where the following ingredients were added fresh to stock buffer: 2 mM dithiothreitol (DTT), 0.0025% Tween-20, 0.1 mg/mL bovine serum albumin (BSA). The 1×Tb-Mcl-1+Cy5 Bim peptide solution was prepared by diluting the protein stock solution using the 1× assay buffer (b) to 25 pM Tb-Mel-1 and 8 nM Cy5 Bim peptide.\nUsing the Acoustic ECHO, 100 nL of 100× test compound(s) were dispensed into individual wells of a white 384-well Perkin Elmer Proxiplate, for a final compound concentration of 1× and final DMSO concentration of 1%. Inhibitor control and neutral control (NC, 100 nL of 100% DMSO) were stamped into columns 23 and 24 of assay plate, respectively. Into each well of the plate was then dispensed 10 μL of the 1×Tb-Mcl-1+Cy5 Bim peptide solution. The plate was centrifuged with a cover plate at 1000 rpm for 1 minute, then incubated for 60 minutes at room temperature with plates covered.\nThe TR-FRET signal was read on an BMG PHERAStar FSX MicroPlate Reader at room temperature using the HTRF optic module (HTRF: excitation: 337 nm, light source: laser, emission A: 665 nm, emission B: 620 nm, integration start: 60 μs, integration time: 400 μs).\nThe BMG PHERAStar FSX MicroPlate Reader was used to measure fluorescence intensity at two emission wavelengths—665 nm and 620 nm—and report relative fluorescence units (RFU) for both emissions, as well as a ratio of the emissions (665 nm/620 nm)*10,000. The RFU values were normalized to percent inhibition as follows:\n% inhibition(((NC−IC)−(compound−IC))(NC−IC))*100\nwhere IC (inhibitor control, low signal)=mean signal of 1×Tb-MCl-1+Cy5 Bim peptide+inhibitor control or 100% inhibition of Mcl-1; NC (neutral control, high signal)=mean signal 1×Tb-MCl-1+Cy5 Bim peptide with DMSO only or 0% inhibition An 11-point dose response curve was generated to determine IC50 values (using GenData) based on the following equation:\nwhere Y=% inhibition in the presence of X inhibitor concentration; Top=100% inhibition derived from the IC (mean signal of Mcl-1+inhibitor control); Bottom=0% inhibition derived from the NC (mean signal of Mcl-1+DMSO); Hillslope=Hill coefficient; and IC50=concentration of compound with 50% inhibition in relation to top/neutral control (NC).\nRepresentative compounds of the present invention were tested according to the procedure as described above, with results as listed in the Table below (n.d. means not determined)."}, "[2]": {"test_system": "MOLP-8 human multiple myeloma cell line", "assay": "Caspase-Glo 3/7 apoptosis induction assay in MOLP-8 cells", "assay_type": "cell-based", "conditions": "caspase-3/7 activity, 2 hours at 37° C., averaged over all runs on all batches, read-out: MOLP8 AC50", "from_the_text": "MCL-1 is a regulator of apoptosis and is highly over-expressed in tumor cells that escape cell death. The assay evaluates the cellular potency of small-molecule compounds targeting regulators of the apoptosis pathway, primarily MCL-1, Bfl-1, Bcl-2, and other proteins of the Bcl-2 family. Protein-protein inhibitors disrupting the interaction of anti-apoptotic regulators with BH3-domain proteins initiate apoptosis.\nThe Caspase-Glo® 3/7 Assay is a luminescent assay that measures caspase-3 and −7 activities in purified enzyme preparations or cultures of adherent or suspension cells. The assay provides a proluminescent caspase-3/7 substrate, which contains the tetrapeptide sequence DEVD. This substrate is cleaved to release aminoluciferin, a substrate of luciferase used in the production of light. Addition of the single Caspase-Glo® 3/7 Reagent in an “add-mix-measure” format results in cell lysis, followed by caspase cleavage of the substrate and generation of a “glow-type” luminescent signal.\nThis assay uses the MOLP-8 human multiple myeloma cell line, which is sensitive to MCL-1 inhibition.\nCell cultures were maintained between 0.2 and 2.0×10^6 cells/mL. The cells were harvested by collection in 50 mL conical tubes. The cells were then pelleted at 500 g for 5 mins before removing supernatant and resuspension in fresh pre-warmed culture medium. The cells were counted and diluted as needed.\nThe assay reagent was prepared by transferring the buffer solution to the substrate vial and mixing. The solution may be stored for up to 1 week at 4° C. with negligible loss of signal.\nCompounds were delivered in assay-ready plates (Proxiplate) and stored at −20° C.\nAssays always include 1 reference compound plate containing reference compounds. The plates were spotted with 40 nL of compounds (0.5% DMSO final in cells; serial dilution; 30 μM highest conc. 1/3 dilution, 10 doses, duplicates). The compounds were used at room temperature and 4 μL of pre-warmed media was added to all wells except column 2 and 23. The negative control was prepared by adding 1% DMSO in media. The positive control was prepared by adding the appropriate positive control compound in final concentration of 60 μM in media. The plate was prepared by adding 4 μL negative control to column 23, 4 μL positive control to column 2 and 4 μL cell suspension to all wells in the plate. The plate with cells was then incubated at 37° C. for 2 hours. The assay signal reagent is the Caspase-Glo solution described above, and 8 μL was added to all wells. The plates were then sealed and measured after 30 minutes.\nThe activity of a test compound was calculated as percent change in apoptosis induction as follows: • LC=median of the Low Control values • =Central Reference in Screener • =DMSO • =[…] • HC=Median of the High Control values • =Scale Reference in Screener • =30 μM of positive control • =100% apoptosis induction\n% Effect (AC50)=100−((sample−LC)/(HC−LC))*100\n% Control=(sample/HC)*100\n% Control min=((sample−LC)/(HC−LC))*100"}}}
{"smiles": "COCCN(CCOC)C(=O)[C@H]1/C=C/C[C@H](C)[C@@H](C)S(=O)(=O)NC(=O)c2ccc3c(c2)N(C[C@@H]2CCCN21)C[C@@]1(CCCc2cc(Cl)ccc21)CO3", "note": "[Compound 1]", "values": [{"measurement": "Ki", "setting": "[1]", "value": 0.03, "unit": "nM"}, {"measurement": "AC50", "setting": "[2]", "value": 56, "unit": "nM"}]}
{"smiles": "C[C@@H]1[C@@H](C)C/C=C/[C@H](C(=O)N(C)CCC2CCOCC2)N2CCC[C@H]2CN2C[C@@]3(CCCc4cc(Cl)ccc43)COc3ccc(cc32)C(=O)NS1(=O)=O", "note": "[Compound 2]", "values": [{"measurement": "Ki", "setting": "[1]", "value": 0.058, "unit": "nM"}, {"measurement": "AC50", "setting": "[2]", "value": 130, "unit": "nM"}]}
{"smiles": "C[C@@H]1[C@@H](C)C/C=C/[C@H](C(=O)N(C)CC2CCOCC2)N2CCC[C@H]2CN2C[C@@]3(CCCc4cc(Cl)ccc43)COc3ccc(cc32)C(=O)NS1(=O)=O", "note": "[Compound 3]", "values": [{"measurement": "Ki", "setting": "[1]", "value": 0.027, "unit": "nM"}, {"measurement": "AC50", "setting": "[2]", "value": 81, "unit": "nM"}]}
{"smiles": "C[C@@H]1[C@@H](C)C/C=C/[C@H](C(=O)N(C)C)N2CCC[C@H]2CN2C[C@@]3(CCCc4cc(Cl)ccc43)COc3ccc(cc32)C(=O)NS1(=O)=O", "note": "[Compound 4]", "values": [{"measurement": "Ki", "setting": "[1]", "value": 0.142, "unit": "nM"}, {"measurement": "AC50", "setting": "[2]", "value": 180, "unit": "nM"}]}
{"smiles": "CC1CC=CC(C(=O)N(C)CCN2CCOCC2)N2CCCC2CN2CC3(CCCc4cc(Cl)ccc43)COc3ccc(cc32)C(=O)NS(=O)(=O)C1C", "note": "(centres unmarked) [Compound 5]", "values": [{"measurement": "Ki", "setting": "[1]", "value": 0.024, "unit": "nM"}, {"measurement": "AC50", "setting": "[2]", "value": 180, "unit": "nM"}]}
{"smiles": "C[C@@H]1[C@@H](C)C/C=C/[C@@H](C(=O)N2CCOCC2)N2CCC[C@H]2CN2C[C@@]3(CCCc4cc(Cl)ccc43)COc3ccc(cc32)C(=O)NS1(=O)=O", "note": "[Compound 6]", "values": [{"measurement": "AC50", "setting": "[2]", "value": 1950, "unit": "nM"}]}
{"smiles": "C[C@@H]1[C@@H](C)C/C=C/[C@H](C(=O)N2CCOCC2)N2CCC[C@H]2CN2C[C@@]3(CCCc4cc(Cl)ccc43)COc3ccc(cc32)C(=O)NS1(=O)=O", "note": "[Compound 7]", "values": [{"measurement": "Ki", "setting": "[1]", "value": 0.089, "unit": "nM"}, {"measurement": "AC50", "setting": "[2]", "value": 360, "unit": "nM"}]}
{"smiles": "C[C@@H]1[C@@H](C)C/C=C/[C@H](C(=O)N2CCOCC2)N2CC[C@H]2CN2C[C@@]3(CCCc4cc(Cl)ccc43)COc3ccc(cc32)C(=O)NS1(=O)=O", "note": "[Compound 8]", "values": [{"measurement": "Ki", "setting": "[1]", "value": 0.705, "unit": "nM"}, {"measurement": "AC50", "setting": "[2]", "value": 340, "unit": "nM"}]}
{"smiles": "C[C@@H]1[C@@H](C)C/C=C/[C@@H](C(=O)N2CCOCC2)N2CC[C@H]2CN2C[C@@]3(CCCc4cc(Cl)ccc43)COc3ccc(cc32)C(=O)NS1(=O)=O", "note": "[Compound 9]", "values": [{"measurement": "Ki", "setting": "[1]", "value": 0.196, "unit": "nM"}, {"measurement": "AC50", "setting": "[2]", "value": 660, "unit": "nM"}]}
